From PubChem BioAssay (NCI)
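Protocol summary: plate cells (96-well), add compound at 5 concentrations, incubate 48 h, interpolate endpoints linearly. GI50: concentration for 50% inhibition of growth. The concentration for full growth arrest is given as TGI.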

Columns and labels:
Assay in all cases: growth of human tumour cells (NCI), 48 h
SF-295 CNS = test system: SF-295 CNS
K-562 leukemia = test system: K-562 leukemia
UACC-62 melanoma = test system: UACC-62 melanoma
OVCAR-5 ovarian = test system: OVCAR-5 ovarian
A498 renal = test system: A498 renal
HCT-116 colon = test system: HCT-116 colon
SF-268 CNS = test system: SF-268 CNS
U251 CNS = test system: U251 CNS
SW-620 colon = test system: SW-620 colon
RPMI-8226 leukemia = test system: RPMI-8226 leukemia

SMILES	GI50 (SF-295 CNS)	TGI (SF-295 CNS)	GI50 (K-562 leukemia)	TGI (K-562 leukemia)	GI50 (UACC-62 melanoma)	TGI (UACC-62 melanoma)	GI50 (OVCAR-5 ovarian)	TGI (OVCAR-5 ovarian)	GI50 (A498 renal)	TGI (A498 renal)	GI50 (HCT-116 colon)	TGI (HCT-116 colon)	GI50 (SF-268 CNS)	TGI (SF-268 CNS)	GI50 (U251 CNS)	TGI (U251 CNS)	GI50 (SW-620 colon)	TGI (SW-620 colon)	GI50 (RPMI-8226 leukemia)	TGI (RPMI-8226 leukemia)
O=C1C(Nc2ccc(Cl)cc2)=C(I)C(=O)c2ncccc21	6.79 µM	19.6 µM	0.278 µM	10.4 µM	1.33 µM	3.12 µM	1.58 µM	3 µM	2.53 µM	13.4 µM	0.305 µM	1.18 µM	1.37 µM	3.23 µM	1.48 µM	2.8 µM	0.378 µM	2 µM	1.33 µM	5 µM
Cc1cc(NC(=O)NC(=O)c2ccccc2NC(=O)C(C)N)ccc1Oc1ncc(Br)cn1 (centres undefined)	–	4.91 µM	–	> 38.5 µM	–	15.5 µM	–	25.1 µM	–	0.529 µM	–	27.2 µM	–	56.3 µM	–	24.4 µM	–	44.4 µM	–	61.5 µM
COc1c(O)c2c3c(cc(C)cc3c1C(C)C)OC2	–	> 100 µM	–	> 100 µM	–	> 100 µM	–	> 100 µM	–	–	–	> 100 µM	–	> 100 µM	–	> 100 µM	–	> 100 µM	–	> 100 µM
O=C(Nc1ccc(Br)cc1F)c1cc(I)ccc1O	2.11 µM	4.85 µM	2.52 µM	> 100 µM	1.37 µM	4.43 µM	3.17 µM	> 100 µM	1.32 µM	3.46 µM	2.79 µM	11.4 µM	2.4 µM	29.6 µM	2.67 µM	> 100 µM	3.07 µM	17.7 µM	–	–
O=[N+]([O-])c1ccc(-n2nnc(C3=NCCN3)c2-c2ccccc2)cc1	–	> 100 µM	–	> 100 µM	–	> 100 µM	–	> 100 µM	–	> 100 µM	–	> 100 µM	–	> 100 µM	–	> 100 µM	–	> 100 µM	–	> 100 µM
COc1ccc2c(CN3CCCC[C@H]3C(=O)O)cc3cc4c(cc3c2c1)OCO4	0.622 µM	3.53 µM	1.5 µM	11.1 µM	1.02 µM	2.34 µM	6.17 µM	44.5 µM	1.55 µM	3.06 µM	–	–	0.175 µM	1.39 µM	1.96 µM	5.4 µM	0.37 µM	1.79 µM	2.57 µM	7.24 µM
COc1cc2c[n+](C)c3c4cc(OC)c(OC(C)C)cc4ccc3c2cc1OC	–	> 100 µM	–	> 100 µM	–	> 100 µM	–	> 100 µM	–	–	–	> 100 µM	–	> 100 µM	–	> 100 µM	–	> 100 µM	–	> 100 µM
NC(=O)N/N=C1/CCC(O)CC1CC(=O)O (centres undefined)	–	> 100 µM	–	> 100 µM	–	> 100 µM	–	> 100 µM	–	> 100 µM	–	> 100 µM	–	> 100 µM	–	> 100 µM	–	> 100 µM	–	> 100 µM
